Laboratory results taken from ChEMBL document CHEMBL2385072, “Development of oleanane-type triterpenes as a new class of HCV entry inhibitors” (J Med Chem, 2013).

Experiments:
Conditions in all cases: HEK-293T
Hepatitis C virus [1] = assay: Antiviral activity against pseudo HCV infected in human 293T cells assessed as inhibition of HCV pseudo particles entry at 5 uM after 72 hrs by luciferase reporter gene assay; format: functional, Hepacivirus hominis
Hepatitis C virus [2] = assay: Antiviral activity against pseudo HCV infected in human 293T cells assessed as inhibition of HCV pseudo particles entry at 1 uM after 72 hrs by luciferase reporter gene assay; format: functional, Hepacivirus hominis
[3] = tested on: Vesicular stomatitis virus; assay: Antiviral activity against pseudo VSV infected in human 293T cells assessed as inhibition of vesicular stromatis G protein pseudo particles entry at 5 uM after 72 hrs by luciferase reporter gene assay; format: functional
[4] = tested on: Vesicular stomatitis virus; assay: Antiviral activity against pseudo VSV infected in human 293T cells assessed as inhibition of vesicular stromatis G protein pseudo particles entry at 1 uM after 72 hrs by luciferase reporter gene assay; format: functional

| SMILES | inhibition at 5 µM (Hepatitis C virus [1]) [%] | inhibition at 1 µM (Hepatitis C virus [2]) [%] | inhibition at 5 µM [3] [%] | inhibition at 1 µM [4] [%] |
| --- | --- | --- | --- | --- |
| CC1(C)CC[C@]2(C(=O)O)[C@H](O)C[C@]3(C)C(=CC[C@@H]4[C@@]5(C)CC[C@H](O)C(C)(C)[C@@H]5C[C@H](O)[C@]43C)[C@@H]2C1 | 53.5 | 30.4 | 5.6 | 1.6 |
| CC1(C)CC[C@]2(C(=O)NCc3cn([C@@H]4O[C@H](CO)[C@@H](O[C@H]5O[C@H](CO)[C@@H](O)[C@H](O)[C@H]5O)[C@H](O)[C@H]4O)nn3)[C@H](O)C[C@]3(C)C(=CC[C@@H]4[C@@]5(C)CC[C@H](O)C(C)(C)[C@@H]5CC[C@]43C)[C@@H]2C1 | 29.7 | 9.3 | 48.1 | 25.8 |
| CC1(C)CC[C@]2(C(=O)O)[C@H](OS(=O)(=O)O)C[C@]3(C)C(=CC[C@@H]4[C@@]5(C)CC[C@H](O)C(C)(C)[C@@H]5CC[C@]43C)[C@@H]2C1 | -2.7 | 1 | 34.7 | 38.5 |
| COC(=O)[C@@]12C=C[C@]3(C)C(=CC[C@@H]4[C@@]5(C)CC=CC(C)(C)[C@@H]5CC[C@]43C)[C@@H]1CC(C)(C)CC2 | 14 | 35.8 | 33.9 | 20.9 |
| CC1(C)CC[C@]2(C(=O)NCc3cn([C@@H]4O[C@H](CO)[C@H](O)[C@H](O)[C@H]4O)nn3)[C@H](O)C[C@]3(C)C(=CC[C@@H]4[C@@]5(C)CC[C@H](O)C(C)(C)[C@@H]5CC[C@]43C)[C@@H]2C1 | 36.3 | 16.6 | 25.3 | 11.5 |
| COC(=O)[C@]12CCC(C)(C)C[C@H]1[C@H]1C(O)C[C@@H]3[C@@]4(C)CC[C@H](O)C(C)(C)[C@@H]4CC[C@@]3(C)[C@]1(C)C[C@H]2O (stereo partly drawn) | 51 | 22.6 | 43.5 | 35.8 |
| COC(=O)[C@@]12C=C[C@]3(C)C(=CC[C@@H]4[C@@]5(C)CC[C@H](O)C(C)(C)[C@@H]5CC[C@]43C)[C@@H]1CC(C)(C)CC2 | 27.9 | 12.3 | 18.8 | 15.2 |
| CC1(C)CC[C@]2(C(=O)O)[C@H](O)C[C@]3(C)C(=CC[C@@H]4[C@@]5(C)CC[C@H](OS(=O)(=O)O)C(C)(C)[C@@H]5CC[C@]43C)[C@@H]2C1 | 55.2 | 33.4 | 40.4 | 39.1 |
| CC1(C)CC[C@]2(C(=O)O)[C@H](O)C[C@]3(C)C(=CC[C@@H]4[C@@]5(C)CCC(N)C(C)(C)[C@@H]5CC[C@]43C)[C@@H]2C1 (stereo partly drawn) | 10.5 | 12.1 | 28.4 | 23.6 |
| CC(=O)O[C@@H]1[C@H](OC(C)=O)[C@H](n2cc(CNC(=O)[C@]34CCC(C)(C)C[C@H]3C3=CC[C@@H]5[C@@]6(C)CC[C@H](O)C(C)(C)[C@@H]6CC[C@@]5(C)[C@]3(C)C[C@H]4O)nn2)O[C@H](C)[C@H]1OC(C)=O | 71.6 | 17 | -10.7 | 32.6 |
| CC(=O)OC[C@H]1O[C@@H](n2cc(CNC(=O)[C@]34CCC(C)(C)C[C@H]3C3=CC[C@@H]5[C@@]6(C)CC[C@H](O)C(C)(C)[C@@H]6CC[C@@]5(C)[C@]3(C)C[C@H]4O)nn2)[C@H](OC(C)=O)[C@@H](OC(C)=O)[C@@H]1O[C@H]1O[C@H](COC(C)=O)[C@@H](O[C@H]2O[C@H](COC(C)=O)[C@@H](OC(C)=O)[C@H](OC(C)=O)[C@H]2OC(C)=O)[C@H](OC(C)=O)[C@H]1OC(C)=O | 62.9 | 45.4 | 14 | 17.7 |
| CC(=O)O[C@@H]1[C@@H](OC(C)=O)[C@H](OC(C)=O)CO[C@H]1n1cc(CNC(=O)[C@]23CCC(C)(C)C[C@H]2C2=CC[C@@H]4[C@@]5(C)CC[C@H](O)C(C)(C)[C@@H]5CC[C@@]4(C)[C@]2(C)C[C@H]3O)nn1 | 87.3 | 35.9 | 47.7 | 39.8 |
| COC(=O)[C@]12CCC(C)(C)C[C@H]1C1=CC[C@@H]3[C@@]4(C)CC[C@H](OC)C(C)(C)[C@@H]4CC[C@@]3(C)[C@]1(C)C[C@H]2OC | 7.9 | 1.7 | 14.2 | 8.5 |
| CC1(C)CC[C@]2(C(=O)NCc3cn(CCNC(=O)CCCC[C@@H]4SC[C@@H]5NC(=O)N[C@@H]54)nn3)[C@H](O)C[C@]3(C)C(=CC[C@@H]4[C@@]5(C)CC[C@H](O)C(C)(C)[C@@H]5CC[C@]43C)[C@@H]2C1 | 76.7 | 34.2 | 12 | 10.3 |
| CC1(C)CC[C@]2(C(=O)O[C@@H]3O[C@H](CO)[C@H](O)[C@H](O)[C@H]3O)[C@H](O)C[C@]3(C)C(=CC[C@@H]4[C@@]5(C)CC[C@H](O)C(C)(C)[C@@H]5CC[C@]43C)[C@@H]2C1 | 61.6 | 40.9 | 14.6 | 8.1 |
| CC1(C)CC[C@]2(C(=O)NCc3cn([C@@H]4O[C@H](CO)[C@@H](O[C@@H]5O[C@H](CO)[C@H](O)[C@H](O)[C@H]5O)[C@H](O)[C@H]4O)nn3)[C@H](O)C[C@]3(C)C(=CC[C@@H]4[C@@]5(C)CC[C@H](O)C(C)(C)[C@@H]5CC[C@]43C)[C@@H]2C1 | 14.6 | 23.1 | 47.3 | 47 |
| CC(=O)OC[C@H]1O[C@@H](n2cc(CNC(=O)[C@]34CCC(C)(C)C[C@H]3C3=CC[C@@H]5[C@@]6(C)CC[C@H](O)C(C)(C)[C@@H]6CC[C@@]5(C)[C@]3(C)C[C@H]4O)nn2)[C@H](OC(C)=O)[C@@H](OC(C)=O)[C@@H]1O[C@H]1O[C@H](COC(C)=O)[C@@H](OC(C)=O)[C@H](OC(C)=O)[C@H]1OC(C)=O | 79.7 | 56.4 | 28.9 | 13.2 |
| CC(=O)O[C@@H]1[C@H](OC(C)=O)[C@H](n2cc(CNC(=O)[C@]34CCC(C)(C)C[C@H]3C3=CC[C@@H]5[C@@]6(C)CC[C@H](O)C(C)(C)[C@@H]6CC[C@@]5(C)[C@]3(C)C[C@H]4O)nn2)OC[C@H]1OC(C)=O | 65.8 | 21.8 | 32.2 | 29.3 |
| CC1(C)CC[C@]2(C(=O)NCc3cn([C@@H]4OC[C@@H](O)[C@@H](O)[C@@H]4O)nn3)[C@H](O)C[C@]3(C)C(=CC[C@@H]4[C@@]5(C)CC[C@H](O)C(C)(C)[C@@H]5CC[C@]43C)[C@@H]2C1 | 32.2 | 18.7 | 25.1 | 8.4 |
| COC(=O)[C@]12CCC(C)(C)C[C@H]1C1=CC[C@@H]3[C@@]4(C)CC[C@H](OS(=O)(=O)c5ccc(C)cc5)C(C)(C)[C@@H]4CC[C@@]3(C)[C@]1(C)C[C@H]2O | 16.4 | 12.3 | 39.3 | 38.3 |
| CC1(C)CC[C@]2(C(=O)NCc3cn([C@@H]4OC[C@@H](O)[C@H](O)[C@H]4O)nn3)[C@H](O)C[C@]3(C)C(=CC[C@@H]4[C@@]5(C)CC[C@H](O)C(C)(C)[C@@H]5CC[C@]43C)[C@@H]2C1 | 27.8 | 14.8 | 27 | 34.4 |
| CC(=O)OC[C@H]1O[C@@H](n2cc(CNC(=O)[C@]34CCC(C)(C)C[C@H]3C3=CC[C@@H]5[C@@]6(C)CC[C@H](O)C(C)(C)[C@@H]6CC[C@@]5(C)[C@]3(C)C[C@H]4O)nn2)[C@H](OC(C)=O)[C@@H](OC(C)=O)[C@@H]1O[C@@H]1O[C@H](COC(C)=O)[C@@H](OC(C)=O)[C@H](OC(C)=O)[C@H]1OC(C)=O | 64.8 | 11.9 | 38.8 | 36.8 |
| CC1(C)CC[C@]2(C(=O)O)[C@H](O)C[C@]3(C)C(=CC[C@@H]4[C@@]5(C)[C@H](O)C[C@H](O)C(C)(C)[C@@H]5CC[C@]43C)[C@@H]2C1 | 35.2 | 14.3 | 11.8 | 7.9 |
| CC(=O)OC[C@H]1O[C@@H](O[C@H]2[C@H](OC(C)=O)[C@@H](OC(C)=O)[C@H](n3cc(CNC(=O)[C@]45CCC(C)(C)C[C@H]4C4=CC[C@@H]6[C@@]7(C)CC[C@H](O)C(C)(C)[C@@H]7CC[C@@]6(C)[C@]4(C)C[C@H]5O)nn3)O[C@@H]2COC(C)=O)[C@H](OC(C)=O)[C@@H](OC(C)=O)[C@H]1OC(C)=O | 71.8 | 24.6 | 32.1 | 39 |
| CC1(C)CC[C@]2(C(=O)O[C@@H]3O[C@H](CO)[C@@H](O[C@@H]4O[C@H](CO)[C@H](O)[C@H](O)[C@H]4O)[C@H](O)[C@H]3O)[C@H](O)C[C@]3(C)C(=CC[C@@H]4[C@@]5(C)CC[C@H](O)C(C)(C)[C@@H]5CC[C@]43C)[C@@H]2C1 | 40.1 | 32.7 | 16.7 | 22.6 |
| CC1(C)CC[C@]2(C(=O)NCc3cn([C@@H]4OC[C@@H](O)[C@H](O)[C@@H]4O)nn3)[C@H](O)C[C@]3(C)C(=CC[C@@H]4[C@@]5(C)CC[C@H](O)C(C)(C)[C@@H]5CC[C@]43C)[C@@H]2C1 | 43.2 | 20.3 | 35.2 | 7 |
| COC(=O)[C@]12CCC(C)(C)C[C@H]1C1=CC[C@@H]3[C@@]4(C)CC[C@H](OC(C)=O)C(C)(C)[C@@H]4CC[C@@]3(C)[C@]1(C)C[C@H]2OC(C)=O | 20.1 | 13.5 | 24.2 | 15.8 |
